Drawing on patent US9873693B2 (Sunesis Pharmaceuticals, Inc., priority 2006, dated 2018), this text covers EC50 and IC50 for one compound.

The structures appear in SMILES notation.

For assay [1], the system named is phospho-akt (Thr308). Description: phospho-akt (Thr308) MSD ELISA in PC-3 cells. Format: cell-based. The conditions noted are these: Homo sapiens, PC-3, 2 h, PC-3 cells, 2 hours, no serum; read-out: Inhibition of P308 Akt in cells using MSD EC50. In a few lines: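 PC-3 cells plated overnight in 10% FBS medium, then treated with three-fold serial compound dilutions in serum-free medium; DMSO-only wells as high control. Lysates captured on BSA-blocked MSD plates overnight at 4 degrees, detection antibody 1 hr RT, electrochemiluminescence read on MSD reader.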
Background: In an ELISA, binding on a coated surface is turned into a signal by an enzyme label.

The target of assay [2] is dephosphorylated PDK1 (Homo sapiens (Human), UniProt O15530). Briefly: PDK1 kinase assay (coupled PDK1/AKT/FAM-crosstide, IMAP). The note with it: 25 nM un-phosphorylated PDK1, 24 μM ATP; read-out: Inhibition of dephospo-PDK1 in vitro IC50. Format: biochemical. Put shortly:
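Coupled cascade using 25 nM dephosphorylated PDK1 (aa 51–360, lambda-phosphatase treated, MS-verified), 30 nM unphosphorylated GST-AKT2 (aa 140–467)-PIFtide and 100 nM FAM-crosstide in Tris pH 7.2, 10 mM MgCl2, 1 mM DTT. ATP was 24 μM, with 30 min at 25 °C. Product was read by IMAP fluorescence polarization, and ΔmP against concentration was fitted with a 4-parameter model.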

Assay [3] addresses phosphorylated PDK1 (Homo sapiens (Human), UniProt O15530). The assay is described as above. Format: biochemical. The conditions noted are these: 0.5 nM phosphorylated PDK1, 24 μM ATP; read-out: Inhibition of phospo-PDK1 in vitro IC50.

phosphorylated PDK1, sequence (O15530 51-360): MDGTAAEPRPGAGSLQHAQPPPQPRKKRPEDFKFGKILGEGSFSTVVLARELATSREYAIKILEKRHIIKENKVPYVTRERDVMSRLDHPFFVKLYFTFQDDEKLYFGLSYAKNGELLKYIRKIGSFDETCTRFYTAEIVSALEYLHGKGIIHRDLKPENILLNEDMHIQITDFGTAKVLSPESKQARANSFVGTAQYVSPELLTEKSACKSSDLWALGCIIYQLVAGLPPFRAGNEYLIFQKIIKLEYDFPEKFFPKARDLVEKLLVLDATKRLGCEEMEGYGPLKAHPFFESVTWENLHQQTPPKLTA
dephosphorylated PDK1, sequence (O15530 51-360): as above

As to `O=C(NCc1nc(-c2c[nH]c3ncccc23)cs1)c1cccn(Cc2ccc(F)c(F)c2)c1=O` [Cpd 112], in assay [1], the EC50 (usually the concentration that produces a half-maximal response) is below 1000 nM. For the same compound, the IC50 in assay [2] and in assay [3] was below 500 nM throughout.
